Reference: the NIST ThermoML archive (doi:10.1016/j.jct.2013.08.010)

Test: mn = molality of the nth substance listed, in mol/kg
Conditions: 101 kPa, Liquid; for speed of sound: Sing-around technique in a fixed-path interferometer; for mass density: Vibrating tube method

NCC(=O)O [2-aminoacetic acid] + O
Conditions | mass density, 288.15 K [kg/m3] | mass density, 298.15 K [kg/m3] | mass density, 308.15 K [kg/m3] | mass density, 318.15 K [kg/m3] | speed of sound, 288.15 K [m/s] | speed of sound, 298.15 K [m/s] | speed of sound, 308.15 K [m/s] | speed of sound, 318.15 K [m/s]
m1 = 0.01207 | 999.51 | 997.439 | 994.412 | 990.513 | 1467.2 | 1497.7 | 1520 | 1537.2
m1 = 0.0523 | 1000.84 | 998.74 | – | 991.747 | 1470.1 | 1500.1 | 1522.9 | 1538.9
m1 = 0.1037 | 1002.52 | 1000.39 | 997.281 | 993.309 | 1472.3 | 1502.3 | 1524.7 | 1541.1
m1 = 0.2037 | 1005.77 | 1003.57 | 1000.37 | 996.317 | 1477.8 | 1507.2 | 1529.7 | 1545.8
m1 = 0.3068 | 1009.07 | 1006.8 | 1003.51 | – | 1483.4 | 1512.4 | 1534.6 | 1551.4
m1 = 0.4124 | 1012.4 | 1010.06 | 1006.68 | 1002.46 | 1488.7 | 1517.8 | 1539.7 | 1555.4
m1 = 0.5028 | 1015.22 | 1012.82 | 1009.36 | 1005.06 | 1494.5 | 1523 | 1543.8 | 1560.2
m1 = 0.6058 | 1018.38 | 1015.9 | 1012.35 | 1007.97 | 1499.2 | 1527.3 | 1548.7 | 1564.1
m1 = 0.6829 | 1020.71 | 1018.19 | 1014.55 | 1010.1 | 1503.4 | 1531.3 | 1552.5 | 1567.7
m1 = 0.82 | 1024.83 | 1022.23 | 1018.45 | 1013.89 | 1510.2 | 1537.7 | 1558.6 | 1573.5

CC(C)[C@H](N)C(=O)O [L-valine] + O
Conditions | mass density, 288.15 K [kg/m3] | mass density, 298.15 K [kg/m3] | mass density, 308.15 K [kg/m3] | mass density, 318.15 K [kg/m3] | speed of sound, 288.15 K [m/s] | speed of sound, 298.15 K [m/s] | speed of sound, 308.15 K [m/s] | speed of sound, 318.15 K [m/s]
m1 = 0.00555 | 999.264 | 997.195 | 994.174 | 990.28 | 1467.4 | 1497.5 | 1520.4 | 1537.1
m1 = 0.02398 | 999.773 | 997.685 | 994.647 | 990.74 | 1467.3 | 1497.4 | 1520.4 | 1537.4
m1 = 0.03504 | 1000.08 | 997.977 | 994.929 | 991.014 | 1469.7 | 1499.6 | 1522 | 1538.7
m1 = 0.05824 | 1000.71 | 998.588 | 995.518 | 991.588 | 1469.6 | 1499.7 | 1522.6 | 1539
m1 = 0.07873 | 1001.27 | 999.124 | 996.034 | 992.09 | 1472.8 | 1502.4 | 1525 | 1541.2
m1 = 0.09938 | 1001.83 | 999.658 | 996.551 | 992.593 | 1474.8 | 1504.4 | 1526.9 | 1542.7
m1 = 0.2068 | 1004.69 | 1002.41 | 999.213 | 995.181 | 1477 | 1506.2 | 1528.2 | 1544.4
m1 = 0.2992 | 1007.1 | 1004.73 | 1001.45 | 997.351 | 1488.4 | 1516.6 | 1537.8 | 1552.5
m1 = 0.4017 | 1009.7 | 1007.24 | 1003.87 | 999.709 | 1497.2 | 1524.8 | 1545.2 | 1560.4
